Assay [1] deals with T1, adrenal membrane angiotensin II receptor (Oryctolagus cuniculus, UniProt P34976).
T1 construct: Aliquots of rabbit adrenal membranes containing 10-30 μg protein were incubated; from tissue; host or cells: adrenal gland membranes of male New Zealand white rabbits
T1 sequence (P34976 1-359): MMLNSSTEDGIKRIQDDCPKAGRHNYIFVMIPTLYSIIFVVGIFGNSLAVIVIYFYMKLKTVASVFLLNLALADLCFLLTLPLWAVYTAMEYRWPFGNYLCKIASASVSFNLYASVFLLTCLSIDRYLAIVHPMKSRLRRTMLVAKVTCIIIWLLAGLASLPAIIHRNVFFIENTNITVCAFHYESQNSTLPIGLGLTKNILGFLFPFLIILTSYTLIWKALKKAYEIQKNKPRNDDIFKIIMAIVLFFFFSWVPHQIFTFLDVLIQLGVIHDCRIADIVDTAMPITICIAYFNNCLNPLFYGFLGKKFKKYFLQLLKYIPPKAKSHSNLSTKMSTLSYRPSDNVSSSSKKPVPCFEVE
The assay is described as follows: Test A: binding affinity to the adrenal membrane angiotensin II receptor in vitro. The settings on record: rabbit adrenal membranes, 0.05 nM [^125 I]angiotensin II, 60 minutes at 25° C.; read-out: Ki from Test A. Details: species or system rabbit (male New Zealand white). The method, then: In test A the binding affinity of compounds to the adrenal membrane angiotensin II receptor was determined in vitro and in tests B and C the antihypertensive effect of the compounds was measured in vivo. A detailed description of the tests follows. Test A 1) Preparation of Membranes Adrenal glands from male New Zealand white rabbits were homogenised on ice in 20 mM aqueous sodium bicarbonate solution containing 50 μM PMSF (phenylmethanesulphonyl fluoride) (2 ml/g wet weight) using a Polytron (Trademark) homogeniser for 3×15 seconds at setting 8. The homogenate was centrifuged at 900 g for 10 minutes at 4° C. and the pellet was discarded. The supernatant was recentrifuged at 30000 g for 30 minutes at 4° C., and the resulting pellet was resuspended in assay buffer (50 mM Tris-HCl, pH 7.4, containing 1 mM EDTA, 6.5 mM MgCl2, 125 mM NACl, 50 μM PMSF, 5 μg/ml pepstatin and 50 μg/ml each of leupeptin, antipain, aprotinin and chymostatin): 10 ml per g original tissue wet weight. Polyethylene glycol was added (final concentration 30%) as a cryopreservant and the membrane preparation divided into aliquots and stored at -80° C. until required. Protein was determined by a modification of the method of Lowry (Markwell et al, (1978) Anal. Biochem., 87: 206-210). 2) Binding Assay Aliquots of rabbit adrenal membranes containing 10-30 μg protein were incubated with 0.05 nM [^125 I]angiotensin II in the presence or absence of potential angiotensin II antagonists in 1 ml polyamide tubes in a total volume of 200 μI assay buffer. After incubation for 60 minutes am 25° C. the reaction was terminated by the addition of ice-cold assay buffer, and the bound and free radioactivity was separated through Skatron (Trademark) receptor-binding filters, pre-wetted with assay buffer, using a Skatron cell harvester. The filters were washed with ice-cold phosphate buffered saline, dried, and the trapped radioactivity was determined using a gamma counter. Non-specific binding, measured in the presence of 2 μM unlabelled angiotensin II, was subtracted from total binding to obtain specific binding. Radioligand binding curves were analysed using EBDA and LIGAND (Cambridge Biosoft). Values for binding affinity were obtained by nonlinear regression analysis of untransformed data. The activities of the compounds described in the Examples given hereinafter are set out below in Table A, Column 1.

Assay [2] relates to Aoki-Okamoto strain of spontaneously hypertensive rat. Put plainly: Test B: oral antihypertensive effect, threshold dose. In kind it is in vivo. To be noted: dose giving a reduction of blood pressure of between 9 and 16% after correction, 1.5 and 5.0 hours after dosing; for minimal effective dose: Rattus norvegicus, po, 5 h, read-out: Threshold anti-hypertensive dose from Test B. The method, then:
(§1) In test A the binding affinity of compounds to the adrenal membrane angiotensin II receptor was determined in vitro and in tests B and C the antihypertensive effect of the compounds was measured in vivo. A detailed description of the tests follows.
(§2) Female rats, weight range 180-240 g, of the Aoki-Okamoto strain of spontaneously hypertensive rat were used. The rats in groups of four were fasted overnight before administration of the test compound. Blood pressure was determined in the following way. The rats were placed in a cabinet kept at 38° C. with their tails protruding through holes in the cabinet. After 30 minutes in the cabinet blood pressure was measured using an inflatable cuff placed round the base of the mail and arterial pulsations monitored with a pneumatic pulse transducer. […] The pressure in the cuff at which arterial pulsations reappeared was taken as the blood pressure. The rats were removed from the cabinet and each group orally dosed with a given dose of the test compound given as a solution or suspension in 0.25% aqueous carboxymethylcellulose. In addition to the predose reading, blood pressure was measured at 1.5 and 5.0 hours after dosing. The degree of blood pressure reduction sufficient to achieve a significance level of p<0.01 compared to controls was 9% after correction for control changes at appropriate time intervals. Thus, compounds were considered to be active in this test if they produced a reduction of blood pressure after correction of 9% or greater than 9%.
(§3) Threshold antihypertensive doses of compounds of formula I were determined in the following way. Compounds were tested initially at a particular dose level, for example 90 mg/kg.
The activities of the compounds described in the Examples given hereinafter are set out below in Table A, Column 2.

Assay [3] shares this test system. The assay is described as follows: Test C: oral antihypertensive effect after pretreatment with bendrofluazide, threshold dose. In kind it is in vivo. To be noted: pretreated with bendrofluazide 10 mg/kg at 16 hours and 2 hours prior to dose. The method, then: as §1, §2, §3
The procedure of Test B above was carried out subject to the modification of pretreating the rats with bendrofluazide 10 mg/kg (an orally administered diuretic) at 16 hours and 2 hours prior to the dose of the test compound, to ensure activation of the reninangiotensin system.
The activities of the compounds described in the Examples given hereinafter are set out below in Table A, Column 3.

Molecules are shown by their SMILES. Where a name gives a salt, the structure may show the parent alone.

As a reminder, the Ki is a dissociation constant, usually derived from enzyme kinetics or from competition with a known ligand.

For `CCCCc1nc(Cl)c(C(=O)O)n1Cc1ccc(-c2ccccc2-c2c(O)c(=O)c2=O)cc1` [Example 29, 2-butyl-4-chloro-1-[2'-(2-hydroxy-3,4-dioxocyclobut-1-en-1-yl)biphenyl-4-ylmethyl]-1H-imidazole-5-carboxylic acid 0.4 hydrochloride], in assay [1], the inhibition constant (Ki) came out at 13.7 nM. Besides, the minimal effective dose in assay [2] is greater than 3 mg/kg. Besides, the “Threshold anti-hypertensive dose from Test C” value in assay [3] is 3 mg/kg.
Take `CCc1nc2c(C)c(S(=O)(=O)N(C)C)c(C)nc2n1Cc1ccc(-c2ccccc2-c2c(O)c(=O)c2=O)cc1` [Example 11, 2-ethyl-3-[2'-(2-hydroxy-3,4-dioxocyclobut-1-en-1-yl)biphenyl-4-ylmethyl]-5,7, N,N-tetramethyl-3H-imidazo[4,5-b]pyridine-6-sulphonamide mono-ethyl acetate solvate]: the Ki in assay [1] amounted to 393 nM.
`CCCc1nc(CC)c(C=O)n1Cc1ccc(-c2ccccc2-c2c(O)c(=O)c2=O)cc1` [Example 15, 4-ethyl-1-[2'-(2-hydroxy-3,4-dioxocyclobut-1-en-1-yl)biphenyl-4-ylmethyl]-2-propyl-1H-imidazole-5-carboxaldehyde]: in assay [1], the Ki was determined as 13.5 nM. For the same compound, the “Threshold anti-hypertensive dose from Test C” value in assay [3] worked out at 3 mg/kg.
The like results for `CCc1nc2c(C)cc(C)nc2n1Cc1ccc(-c2ccccc2-c2c(OC(C)C)c(=O)c2=O)cc1` [Example 1, 3-[4'-(2-ethyl-5,7-dimethyl-3H-imidazo[4,5-b]pyrid-3-ylmethyl)biphenyl-2-yl]-4-isopropoxycyclobut-3-ene-1,2-dione] were, in that order, 97.6 nM and 30 mg/kg.
`CCCc1nc2c(C)cc(C)nc2n1Cc1ccc(-c2ccccc2-c2c(O)c(=O)c2=O)cc1` [Example 9, sodium salt of 3-[4'-(5,7-dimethyl-2-propyl-3H-imidazo[4,5-b]-pyrid-3-ylmethyl)biphenyl-2-yl]-4-hydroxycyclobut-3-ene-1,2-dione]: the Ki in assay [1] stood at 3.71 nM. In addition, the “Threshold anti-hypertensive dose from Test B” value in assay [2] worked out at 10 mg/kg. Besides, in assay [3], the “Threshold anti-hypertensive dose from Test C” value came to 0.1 mg/kg.
`CCCCc1nc(Cl)c(/C=C(\Cc2ccccc2)C(=O)O)n1Cc1ccc(-c2c(O)c(=O)c2=O)cc1` [Example 30, (E)-2-benzyl-3-[2-butyl-4-chloro-1-[4-(2-hydroxy-3,4-dioxocyclobut-1-en-1-yl)benzyl]-1H-imidazol-5-yl]propenoic acid]: the Ki in assay [1] came out at 77.9 nM. In addition, the “Threshold anti-hypertensive dose from Test C” value in assay [3] is recorded as no more than 10 mg/kg.
Regarding `CCCCc1nc(Cl)c(C(=O)OC)n1Cc1ccc(-c2ccccc2-c2c(O)c(=O)c2=O)cc1` [Example 28, methyl 2-butyl-4-chloro-1-[2'-(2-hydroxy-3,4-dioxo-cyclobut-1-en-1-yl)biphenyl-4-ylmethyl]-1H-imidazole-5-carboxylate], in assay [1], the Ki was found to be 27.7 nM. Further, the “Threshold anti-hypertensive dose from Test C” value in assay [3] was determined as 10 mg/kg.
In the case of `CCc1nc2c(C)cc(C)nc2n1Cc1ccc(-c2ccccc2-c2c(N)c(=O)c2=O)cc1` [Example 6, 3-amino-4-[4'-(2-ethyl-5,7-dimethyl-3H-imidazo[4,5-b]pyrid-3-ylmethyl)biphenyl-2-yl]cyclobut-3-ene-1,2-dione], in assay [1], the inhibition constant (Ki) was 400 nM.
For the compound `CCCc1nc2c(C)cc(C)nc2n1Cc1ccc(-c2ccccc2-c2c(O)c(=O)c2=O)cc1` [Example 8, 3-[4'-(5 7-dimethyl-2-propyl-3H-imidazo[4,5-b]pyrid-3-ylmethyl)biphenyl-2-yl]-4-hydroxycyclobut-3-ene-1,2-dione], in assay [1], the Ki was 3.19 nM. Besides, the minimal effective dose in assay [2] was determined as 10 mg/kg. The “Threshold anti-hypertensive dose from Test C” value in assay [3] is less than 10 mg/kg.
For the compound `CCc1nc2c(C)cc(C)nc2n1Cc1ccc(-c2ccccc2-c2c(O)c(=O)c2=O)cc1` (single isomer, unassigned) [Example 5, sodium salt of 3-[4'-(2-ethyl-5,7-dimethyl-3H-imidazo[4,5-b]pyrid-3-ylmethyl)biphenyl-2-yl]-4-hydroxycyclobut-3-ene-1,2-dione], the Ki in assay [1] was found to be 1.78 nM. The “Threshold anti-hypertensive dose from Test B” value in assay [2] worked out at 1 mg/kg. In assay [3], the “Threshold anti-hypertensive dose from Test C” value came to 1 mg/kg.
Take `CCc1nc2c(C)cc(C)nc2n1Cc1ccc(-c2ccccc2-c2c(O)c(=O)c2=O)cc1` (single isomer, unassigned) [Example 4, 3-[4'-(2-ethyl-5,7-dimethyl-3H-imidazo[4,5-b]pyrid-3-ylmethyl)biphenyl-2-yl]-4-hydroxycyclobut-3-ene-1,2-dione]: in assay [1], the inhibitory constant (Ki) was found to be 5 nM. Moreover, the “Threshold anti-hypertensive dose from Test B” value in assay [2] is on record as 0.1 mg/kg. For the same compound, the “Threshold anti-hypertensive dose from Test C” value in assay [3] was 0.1 mg/kg.
As to `CCc1nc2c(C)cc(C)nc2n1Cc1ccc(-c2ccccc2-c2c(OCOC(=O)C(C)(C)C)c(=O)c2=O)cc1` [Example 13, 2-[4'-(2-ethyl-5,7-dimethyl-3H-imidazo[4,5-b]pyrid-3-ylmethyl)biphenyl-2-yl]-3,4-dioxocyclobut-1-en-1-yloxymethyl pivalate], the inhibition constant (Ki) in assay [1] came to 19 nM. For the same compound, the minimal effective dose in assay [2] came out at 10 mg/kg. In assay [3], the “Threshold anti-hypertensive dose from Test C” value was less than 10 mg/kg.
In the case of `CCCCc1nc(Cl)c(C=O)n1Cc1ccc(-c2ccccc2-c2c(O)c(=O)c2=O)cc1` [Example 24, 2-butyl-4-chloro-1-[2'-(2-hydroxy-3,4-dioxocyclobut-1-en-1-yl)biphenyl-4-ylmethyl]-1H-imidazole-5-carboxaldehyde], the inhibitory constant (Ki) in assay [1] was determined as 11.1 nM. In addition, the “Threshold anti-hypertensive dose from Test C” value in assay [3] is 3 mg/kg.
The like results for `CCCCC1=NC2(CCCC2)C(=O)N1Cc1ccc(-c2ccccc2-c2c(O)c(=O)c2=O)cc1` [Example 22, 3-[4'-(2-butyl-5-oxo-2-imidazoline-4-spirocyclopent-1-ylmethyl)biphenyl-2-yl]-4-hydroxycyclobut-3-ene-1,2-dione] were, in that order, 3.68 nM and 30 mg/kg.
For `CCc1nc2c(C)c(Cl)c(C)nc2n1Cc1ccc(-c2ccccc2-c2c(O)c(=O)c2=O)cc1` [Example 12, 3-[4'-(6-chloro-2-ethyl-5,7-dimethyl-3H-imidazo-[4,5-b]pyrid-3-ylmethyl)biphenyl-2-yl]-4-hydroxy-cyclobut-3-ene-1,2-dione hydrochloride], in assay [1], the Ki worked out at 13.3 nM.

For the origin of these results see patent publication US5627191A, “Therapeutic agents” (The Boots Company PLC, priority 1992, dated 1997).
